Tests used:
EKVX = assay: NCI-60 anticancer screen (SRB; single dose and five doses); conditions: Homo sapiens
UO-31 = assay: as above; conditions: Homo sapiens
SK-MEL-5 = assay: as above; conditions: Homo sapiens
MDA-MB-435 = assay: as above; conditions: Homo sapiens
HS 578T = assay: as above; conditions: Homo sapiens
OVCAR-5 = assay: as above; conditions: Homo sapiens
MDA-MB-231/ATCC = assay: as above; conditions: Homo sapiens
CAKI-1 = assay: as above; conditions: Homo sapiens
HCC-2998 = assay: as above
HCT-116 = assay: as above; conditions: Homo sapiens
SR = assay: as above; conditions: Homo sapiens
SK-OV-3 = assay: as above; conditions: Homo sapiens
SNB-19 = assay: cells; conditions: Homo sapiens
TK-10 = assay: NCI-60 anticancer screen (SRB; single dose and five doses); conditions: Homo sapiens
MCF7 = assay: as above; conditions: Homo sapiens, MCF7
[1] = 48 h, read-out: Growth Percentage

**Q.** With Cc1[nH]c(=S)sc1C(=O)/C=C/c1ccc(F)cc1 [2c, (E)-3-(4-Fluorophenyl)-1-(4-Methyl-2-Thioxo-2,3-Dihydrothiazol-5-yl)Prop-2-En-1-One] as the compound, how does the GI50 (EKVX) read?
**A.** 12.8 µM

**Q.** What about the activity at 10 µM (EKVX; [1]) of the same compound?
**A.** 51%

**Q.** And the CC50 (EKVX; read-out: LC50)?
**A.** 64.6 µM

**Q.** What about the IC (TGI) (EKVX; read-out: TGI) of the same compound?
**A.** 28.7 µM

**Q.** What about the GI50 (UO-31; UO-31) of the same compound?
**A.** 2.88 µM

**Q.** And the activity at 10 µM (UO-31; UO-31, 48 h, read-out: Growth Percentage)?
**A.** 28.1%

**Q.** And the IC (TGI) (UO-31; UO-31, read-out: TGI)?
**A.** 15.7 µM

**Q.** What about the GI50 (SK-MEL-5; SK-MEL-5) of the same compound?
**A.** 6.77 µM

**Q.** And the activity at 10 µM (SK-MEL-5; SK-MEL-5, 48 h, read-out: Growth Percentage)?
**A.** 42.6%

**Q.** What about the CC50 (SK-MEL-5; SK-MEL-5, read-out: LC50) of the same compound?
**A.** 44.2 µM

**Q.** And the IC (TGI) (SK-MEL-5; SK-MEL-5, read-out: TGI)?
**A.** 19.5 µM

**Q.** What about the GI50 (MDA-MB-435; MDA-MB-435) of the same compound?
**A.** 4.24 µM

**Q.** And the activity at 10 µM (MDA-MB-435; MDA-MB-435, 48 h, read-out: Growth Percentage)?
**A.** 4.67%

**Q.** And the CC50 (MDA-MB-435; MDA-MB-435, read-out: LC50)?
**A.** 48.7 µM

**Q.** And the IC (TGI) (MDA-MB-435; MDA-MB-435, read-out: TGI)?
**A.** 17.5 µM

**Q.** What about the GI50 (HS 578T) of the same compound?
**A.** 13.2 µM

**Q.** What about the activity at 10 µM (HS 578T; [1]) of the same compound?
**A.** 95.3%

**Q.** And the CC50 (HS 578T; read-out: LC50)?
**A.** > 100 µM

**Q.** And the IC (TGI) (HS 578T; read-out: TGI)?
**A.** 40.2 µM

**Q.** What about the GI50 (OVCAR-5; OVCAR-5) of the same compound?
**A.** 15.6 µM

**Q.** And the activity at 10 µM (OVCAR-5; OVCAR-5, 48 h, read-out: Growth Percentage)?
**A.** 119%

**Q.** And the CC50 (OVCAR-5; OVCAR-5, read-out: LC50)?
**A.** 57.7 µM

**Q.** And the IC (TGI) (OVCAR-5; OVCAR-5, read-out: TGI)?
**A.** 30 µM

**Q.** And the GI50 (MDA-MB-231/ATCC; MDA-MB-231)?
**A.** 15.7 µM

**Q.** And the activity at 10 µM (MDA-MB-231/ATCC; MDA-MB-231, 48 h, read-out: Growth Percentage)?
**A.** 29.7%

**Q.** What about the CC50 (MDA-MB-231/ATCC; MDA-MB-231, read-out: LC50) of the same compound?
**A.** 66.1 µM

**Q.** What about the IC (TGI) (MDA-MB-231/ATCC; MDA-MB-231, read-out: TGI) of the same compound?
**A.** 32.2 µM

**Q.** What about the GI50 (CAKI-1; CAKI-1) of the same compound?
**A.** 6.89 µM

**Q.** And the activity at 10 µM (CAKI-1; CAKI-1, 48 h, read-out: Growth Percentage)?
**A.** 31.6%

**Q.** What about the CC50 (CAKI-1; CAKI-1, read-out: LC50) of the same compound?
**A.** 45.4 µM

**Q.** And the IC (TGI) (CAKI-1; CAKI-1, read-out: TGI)?
**A.** 20.2 µM

**Q.** And the GI50 (HCC-2998; Homo sapiens, HCC 2998)?
**A.** 3.46 µM

**Q.** And the activity at 10 µM (HCC-2998; Homo sapiens, HCC 2998, 48 h, read-out: Growth Percentage)?
**A.** 27.1%

**Q.** And the CC50 (HCC-2998; Homo sapiens, HCC 2998, read-out: LC50)?
**A.** 36.5 µM

**Q.** And the TGI (HCC-2998; five-dose, Colon Cancer HCC-2998)?
**A.** 13.2 µM

**Q.** And the GI50 (HCT-116; HCT-116)?
**A.** 3.99 µM

**Q.** What about the activity at 10 µM (HCT-116; HCT-116, 48 h, read-out: Growth Percentage) of the same compound?
**A.** 23.7%

**Q.** What about the CC50 (HCT-116; HCT-116, read-out: LC50) of the same compound?
**A.** 42.5 µM

**Q.** What about the IC (TGI) (HCT-116; HCT-116, read-out: TGI) of the same compound?
**A.** 15.2 µM

**Q.** And the GI50 (SR)?
**A.** 3.19 µM

**Q.** And the activity at 10 µM (SR; [1])?
**A.** 18.3%

**Q.** What about the CC50 (SR; read-out: LC50) of the same compound?
**A.** > 100 µM

**Q.** And the IC (TGI) (SR; read-out: TGI)?
**A.** > 100 µM

**Q.** What about the GI50 (SK-OV-3; SK-OV-3) of the same compound?
**A.** 11 µM

**Q.** What about the CC50 (SK-OV-3; SK-OV-3, read-out: LC50) of the same compound?
**A.** 61.8 µM

**Q.** And the IC (TGI) (SK-OV-3; SK-OV-3, read-out: TGI)?
**A.** 26.1 µM

**Q.** What about the GI50 (SNB-19; SNB-19) of the same compound?
**A.** 4.87 µM

**Q.** And the activity at 10 µM (SNB-19; SNB-19, 48 h, read-out: Growth Percentage)?
**A.** 33.7%

**Q.** And the CC50 (SNB-19; SNB-19, read-out: LC50)?
**A.** 43.1 µM

**Q.** What about the IC (TGI) (SNB-19; SNB-19, read-out: TGI) of the same compound?
**A.** 17.8 µM

**Q.** And the GI50 (TK-10; TK-10)?
**A.** 12.5 µM

**Q.** And the activity at 10 µM (TK-10; TK-10, 48 h, read-out: Growth Percentage)?
**A.** 40.4%

**Q.** And the CC50 (TK-10; TK-10, read-out: LC50)?
**A.** 50.7 µM

**Q.** And the IC (TGI) (TK-10; TK-10, read-out: TGI)?
**A.** 25.2 µM

**Q.** And the GI50 (MCF7)?
**A.** 2.65 µM

— publication PMC11435058, “Synthesis of New Thiazole-Privileged Chalcones as Tubulin Polymerization Inhibitors with Potential Anticancer Activities” (Pharmaceuticals, 2024)
